Source: US9518018B2, “3-alkoxy, thioalkyl and amino-4-amino-6-(substituted)picolinates and their use as herbicides” (Dow AgroSciences LLC, priority 2011, dated 2016)

Tests used:
[1] = tested on: TRZAS: wheat, spring (Triticum aestivum); experiment: Post-Emergent Test I herbicidal activity; type: in vivo; conditions: for GR20 TRZAS: Table 4, growth reduction of 20% of plant growth; for GR20 TRZAS / GR50 TRZAS / GR80 TRZAS: 14 days after application, probit analysis; for GR50 TRZAS: Table 4, growth reduction of 50% of plant growth; for GR80 TRZAS: Table 4, growth reduction of 80% of plant growth
Outline: (§1)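 Visual injury ratings (0 = none, 100 = complete kill) taken 14 d after treatment, compared with untreated plants, feed probit-derived GR20/GR50/GR80. Application: overhead spray, 187 L/ha, highest rate and ½×-1/16× dilutions in acetone-DMSO-based aqueous spray mix with crop oil and surfactant, onto plants grown 7-21 d to first or second true leaf.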

[2] = tested on: POLCO: buckwheat, wild (Polygonum convolvulus); experiment: Post-Emergent Test I herbicidal activity; type: in vivo; conditions: for GR20 POLCO: Table 4, growth reduction of 20% of plant growth; for GR20 POLCO / GR50 POLCO / GR80 POLCO: 14 days after application, probit analysis; for GR50 POLCO: Table 4, growth reduction of 50% of plant growth; for GR80 POLCO: Table 4, growth reduction of 80% of plant growth
Outline: as §1

| Compound | Visual Growth Reduction (%)-14 Days after Application TRZAS ([1]; Table 4, 17.5 g ai/ha) | Visual Growth Reduction (%)-14 Days after Application TRZAS ([1]; Table 4, 35 g ai/ha) | Visual Growth Reduction (%)-14 Days after Application TRZAS ([1]; Table 4, 70 g ai/ha) | Visual Growth Reduction (%)-14 Days after Application TRZAS ([1]; Table 4, 140 g ai/ha) | Visual Growth Reduction (%)-14 Days after Application TRZAS ([1]; Table 4, 280 g ai/ha) | GR20 TRZAS [1] | GR50 TRZAS [1] | GR80 TRZAS [1] | Visual Growth Reduction (%)-14 Days after Application POLCO ([2]; Table 4, 17.5 g ai/ha) | Visual Growth Reduction (%)-14 Days after Application POLCO ([2]; Table 4, 35 g ai/ha) | Visual Growth Reduction (%)-14 Days after Application POLCO ([2]; Table 4, 70 g ai/ha) | Visual Growth Reduction (%)-14 Days after Application POLCO ([2]; Table 4, 140 g ai/ha) | Visual Growth Reduction (%)-14 Days after Application POLCO ([2]; Table 4, 280 g ai/ha) | GR20 POLCO [2] | GR50 POLCO [2] | GR80 POLCO [2] | Visual Growth Reduction (%)-14 Days after Application TRZAS ([1]; Table 4, 8.75 g ai/ha) | Visual Growth Reduction (%)-14 Days after Application POLCO ([2]; Table 4, 8.75 g ai/ha) |
| --- | --- | --- | --- | --- | --- | --- | --- | --- | --- | --- | --- | --- | --- | --- | --- | --- | --- | --- |
| COC(=O)c1nc(Cl)cc(N)c1OC [Compound 1, methyl 4-amino-6-chloro-3-methoxypicolinate] | 0% | 0% | 0% | 0% | 0% | >280 g ai/ha | >280 g ai/ha | >280 g ai/ha | 100% | 100% | 100% | 95% | 100% | <17.5 g ai/ha | <17.5 g ai/ha | <17.5 g ai/ha | – | – |
| COC(=O)c1nc(-c2ccc(Cl)cc2F)cc(N)c1OC [Compound 6, Methyl 4-amino-6-(4-chloro-2-fluorophenyl)-3-methoxypicolinate] | 0% | 15% | 45% | 50% | – | 47.5 g ai/ha | 109 g ai/ha | >140 g ai/ha | 100% | – | 100% | 100% | – | 10.7 g ai/ha | 12.4 g ai/ha | 14.3 g ai/ha | 0% | 0% |
| COc1c(C(=O)O)nc(-c2ccc(Cl)cc2)c(F)c1N [Compound 47] | 15% | 30% | 45% | 50% | – | 30.6 g ai/ha | 98.6 g ai/ha | >140 g ai/ha | 100% | 100% | 100% | 100% | – | <8.75 g ai/ha | <8.75 g ai/ha | <8.75 g ai/ha | 0% | 100% |
| COc1c(C(=O)O)nc(-c2ccc(Cl)c(OC)c2F)c(F)c1N [Compound 45, 4-amino-6-(4-chloro-2-fluoro-3-methoxyphenyl)-5-fluoro-3-methoxypicolinic acid] | 20% | 55% | 60% | 65% | – | 14.3 g ai/ha | 53.5 g ai/ha | >140 g ai/ha | 100% | 100% | 100% | 100% | – | <8.75 g ai/ha | <8.75 g ai/ha | <8.75 g ai/ha | 10% | 100% |
| COc1c(N)cc(-c2ccc(Cl)cc2)nc1C(=O)O [Compound 46] | 15% | 20% | 40% | 70% | 75% | 27.1 g ai/ha | 91.7 g ai/ha | 310 g ai/ha | 80% | 90% | 100% | 100% | 100% | <17.5 g ai/ha | <17.5 g ai/ha | 18.6 g ai/ha | – | – |
